Source: patent publication EP2719696A1, “NOVEL KINASE INHIBITORS” (Asinex Limited, priority 2011, dated 2012)

Tests used:
[1] = target: PDGFR-α (Homo sapiens, UniProt P16234); experiment: Kinase inhibition assay (ELISA); assay type: biochemical; settings: 1 µM ATP
Description: (§1) To determine the interaction of our compounds with tyrosine kinases: PDGFR-α, cKIT, PDGFR-β, VEGFR-2 we used enzyme-linked immunosorbent assay (ELISA).
(§2) Determination plates preparation: The plates are processed by neutravidine for 2 h at 30°C. After washing thrice with TBS/0.1% Tween-20 and blocking with 1% BSA/TBS for 1 h at room temperature (RT) 96-well microtiter plates were washed thrice with TBS/0.1% Tween-20 again.
(§3) Reaction: After addition test compounds (in DMSO, DMSO final concentration - 5%) to reaction buffer (20 mM HEPES, pH 7.5, 15 mM MgCl2, 3 mM MnCl2, 2 mM DTT, 0.2 mM Na3VO4, 0.005% Triton X-100; PDGFR-α,: 0.05 µg/ml, 0.5 µg/ml Poly(G,T)-biotin; PDGFR-β: 0.05 µg/ml, 1 µg/ml Poly(G,T)-biotin; c-KIT: 0.03 µg/ml, 0.15 µg/ml Poly(G,T)-biotin; VEGFR-2: 0.07 µg/ml, 0.05 µg/ml Poly(G,T)-biotin) and preincubation of reaction for 10 min at RT and intensive agitation, ATP solution (PDGFR-α, - 1 µM, PDGFR-β - 0.5 µM, c-KIT - 60 µM, VEGFR-2: - 1.5 µM ATP in reaction buffer per well) was added to initiate reaction. Following incubation of mixture for 1 h at 30°C and intensive agitation the reaction was stopped by stop solution (20 mM HEPES, pH 7.5, 50 mM EDTA).
(§4) Kinase activity determination: The reaction mixture was transferred to determination plate. After mix incubation for 1 h at RT and intensive agitation the plates were washed thrice with TBS/0.1% Tween-20. Following mouse monoclonal 0.05 µg/ml Anti-p-Tyr (PY20) HRP antibodies (Santa Cruz Biotechnology) in PBS/BSA were added for 1 h at RT and intensive agitation. After washing, antibody binding was detected by tetramethylbenzidine (TMB) color development (Sigma). Measurement of A450 nm was carried out after addition of H2SO4

[2] = target: VEGFR-2 (Homo sapiens, UniProt P35968); experiment: Kinase inhibition assay (ELISA); assay type: biochemical; settings: 1.5 µM ATP
Description: as §1, §2, §3, §4

[3] = target: cKIT (Homo sapiens, UniProt P10721); experiment: Kinase inhibition assay (ELISA); assay type: biochemical; settings: 60 µM ATP
Description: as §1, §2, §3, §4

[4] = system: A2780; experiment: MTT proliferation / cytotoxicity assay; assay type: cell-based, human
Description: (§5) Cell culture. The human cancer cell lines A172, A375, A2780 and U251 were purchased from the American Type Culture Collection. All cells were routinely maintained in DMEM containing 10% fetal bovine serum (Omega Scientific), at 37°C in 5% C02.
(§6) Proliferation assay Inhibition of cell A172, A375, A2780 and U251 cell proliferation was assessed by a MTT assay (MTT = Thiazolyl Blue Tetrazolium Bromide) . Cells were inoculated into 96-well microtiter plates containing 0.5% fetal calf serum and incubated at 37°C, 5% CO2, 95% air, and 100% relative humidity for 24 h prior to addition of testing compounds. Following compounds addition, the plates were incubated for an additional 72 h before processing to measure the cell population. Each compound was tested at eight different concentrations in triplicate, as was a control sample. Growth inhibition of 50% (IC50) is calculated by analysis of the data in Prizm3.4 software.
(§7) Table 8 lists IC50 values for inhibition of growth of several cancer cell lines, including the glioblastoma cell lines A172 and U251, measured in a MTT cytotoxicity assay. Table 8. Data of cytotoxicity assay (MTT) for several cancer cell lines, IC50 [µM]

[5] = system: U251; experiment: MTT proliferation / cytotoxicity assay; assay type: cell-based, human; settings: glioblastoma cell line
Description: as §5, §6, §7

[6] = system: A375; experiment: MTT proliferation / cytotoxicity assay; assay type: cell-based, human
Description: as §5, §6, §7

[7] = system: A172; experiment: MTT proliferation / cytotoxicity assay; assay type: cell-based, human; settings: glioblastoma cell line
Description: as §5, §6, §7

Sequence of PDGFR-α (P16234 24-1089, species assumed): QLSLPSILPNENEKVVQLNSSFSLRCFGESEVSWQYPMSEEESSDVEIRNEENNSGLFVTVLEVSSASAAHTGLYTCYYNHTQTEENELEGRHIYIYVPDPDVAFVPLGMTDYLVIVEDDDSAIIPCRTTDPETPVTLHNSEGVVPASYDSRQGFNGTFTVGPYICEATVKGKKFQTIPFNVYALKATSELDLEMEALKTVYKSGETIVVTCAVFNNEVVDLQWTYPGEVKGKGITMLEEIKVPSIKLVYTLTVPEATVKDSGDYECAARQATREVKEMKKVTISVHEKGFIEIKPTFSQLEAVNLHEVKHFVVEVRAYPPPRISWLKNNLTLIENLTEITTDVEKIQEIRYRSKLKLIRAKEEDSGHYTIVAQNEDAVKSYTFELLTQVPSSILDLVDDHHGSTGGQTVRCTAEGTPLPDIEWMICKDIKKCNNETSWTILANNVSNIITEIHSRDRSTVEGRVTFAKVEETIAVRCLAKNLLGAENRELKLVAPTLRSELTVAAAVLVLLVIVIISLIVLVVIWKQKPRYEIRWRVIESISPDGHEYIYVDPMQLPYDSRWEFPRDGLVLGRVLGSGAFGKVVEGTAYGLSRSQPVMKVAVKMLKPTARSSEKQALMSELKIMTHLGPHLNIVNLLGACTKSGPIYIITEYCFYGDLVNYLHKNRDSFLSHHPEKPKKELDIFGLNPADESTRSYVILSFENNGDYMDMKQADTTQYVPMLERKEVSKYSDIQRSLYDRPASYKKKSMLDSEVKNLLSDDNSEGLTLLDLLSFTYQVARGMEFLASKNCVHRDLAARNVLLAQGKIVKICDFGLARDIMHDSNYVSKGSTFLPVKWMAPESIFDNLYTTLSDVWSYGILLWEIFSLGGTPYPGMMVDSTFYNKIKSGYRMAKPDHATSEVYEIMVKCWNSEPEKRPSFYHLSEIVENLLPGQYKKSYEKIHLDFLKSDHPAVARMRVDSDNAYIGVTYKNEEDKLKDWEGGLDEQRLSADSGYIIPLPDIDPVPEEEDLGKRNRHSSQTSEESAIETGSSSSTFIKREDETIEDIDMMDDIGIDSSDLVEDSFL
Sequence of cKIT (P10721 26-976): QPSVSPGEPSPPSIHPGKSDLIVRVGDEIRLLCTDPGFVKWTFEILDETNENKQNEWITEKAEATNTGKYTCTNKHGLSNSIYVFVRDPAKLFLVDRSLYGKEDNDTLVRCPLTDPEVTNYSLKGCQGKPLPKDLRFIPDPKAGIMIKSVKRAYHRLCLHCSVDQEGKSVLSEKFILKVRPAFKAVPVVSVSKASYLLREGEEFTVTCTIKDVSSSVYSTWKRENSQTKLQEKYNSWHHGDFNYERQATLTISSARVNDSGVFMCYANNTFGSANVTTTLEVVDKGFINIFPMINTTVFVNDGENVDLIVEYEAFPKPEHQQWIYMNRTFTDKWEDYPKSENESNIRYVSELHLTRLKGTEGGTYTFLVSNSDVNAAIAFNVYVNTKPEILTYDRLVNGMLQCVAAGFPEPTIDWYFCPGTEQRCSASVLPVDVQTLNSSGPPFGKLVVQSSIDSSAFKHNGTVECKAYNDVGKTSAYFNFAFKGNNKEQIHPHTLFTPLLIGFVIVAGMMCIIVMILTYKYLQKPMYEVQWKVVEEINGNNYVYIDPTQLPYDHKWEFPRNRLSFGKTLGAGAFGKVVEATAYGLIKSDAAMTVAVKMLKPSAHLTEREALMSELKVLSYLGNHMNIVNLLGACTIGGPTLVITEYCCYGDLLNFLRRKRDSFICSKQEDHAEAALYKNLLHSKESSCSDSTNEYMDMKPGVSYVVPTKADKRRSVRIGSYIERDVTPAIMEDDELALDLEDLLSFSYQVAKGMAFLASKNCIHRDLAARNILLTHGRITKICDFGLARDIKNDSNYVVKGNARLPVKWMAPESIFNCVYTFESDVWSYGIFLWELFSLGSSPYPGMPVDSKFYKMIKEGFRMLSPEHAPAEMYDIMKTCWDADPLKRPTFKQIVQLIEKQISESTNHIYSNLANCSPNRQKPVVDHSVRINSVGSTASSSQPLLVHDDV
Sequence of VEGFR-2 (P35968 20-1356, species assumed): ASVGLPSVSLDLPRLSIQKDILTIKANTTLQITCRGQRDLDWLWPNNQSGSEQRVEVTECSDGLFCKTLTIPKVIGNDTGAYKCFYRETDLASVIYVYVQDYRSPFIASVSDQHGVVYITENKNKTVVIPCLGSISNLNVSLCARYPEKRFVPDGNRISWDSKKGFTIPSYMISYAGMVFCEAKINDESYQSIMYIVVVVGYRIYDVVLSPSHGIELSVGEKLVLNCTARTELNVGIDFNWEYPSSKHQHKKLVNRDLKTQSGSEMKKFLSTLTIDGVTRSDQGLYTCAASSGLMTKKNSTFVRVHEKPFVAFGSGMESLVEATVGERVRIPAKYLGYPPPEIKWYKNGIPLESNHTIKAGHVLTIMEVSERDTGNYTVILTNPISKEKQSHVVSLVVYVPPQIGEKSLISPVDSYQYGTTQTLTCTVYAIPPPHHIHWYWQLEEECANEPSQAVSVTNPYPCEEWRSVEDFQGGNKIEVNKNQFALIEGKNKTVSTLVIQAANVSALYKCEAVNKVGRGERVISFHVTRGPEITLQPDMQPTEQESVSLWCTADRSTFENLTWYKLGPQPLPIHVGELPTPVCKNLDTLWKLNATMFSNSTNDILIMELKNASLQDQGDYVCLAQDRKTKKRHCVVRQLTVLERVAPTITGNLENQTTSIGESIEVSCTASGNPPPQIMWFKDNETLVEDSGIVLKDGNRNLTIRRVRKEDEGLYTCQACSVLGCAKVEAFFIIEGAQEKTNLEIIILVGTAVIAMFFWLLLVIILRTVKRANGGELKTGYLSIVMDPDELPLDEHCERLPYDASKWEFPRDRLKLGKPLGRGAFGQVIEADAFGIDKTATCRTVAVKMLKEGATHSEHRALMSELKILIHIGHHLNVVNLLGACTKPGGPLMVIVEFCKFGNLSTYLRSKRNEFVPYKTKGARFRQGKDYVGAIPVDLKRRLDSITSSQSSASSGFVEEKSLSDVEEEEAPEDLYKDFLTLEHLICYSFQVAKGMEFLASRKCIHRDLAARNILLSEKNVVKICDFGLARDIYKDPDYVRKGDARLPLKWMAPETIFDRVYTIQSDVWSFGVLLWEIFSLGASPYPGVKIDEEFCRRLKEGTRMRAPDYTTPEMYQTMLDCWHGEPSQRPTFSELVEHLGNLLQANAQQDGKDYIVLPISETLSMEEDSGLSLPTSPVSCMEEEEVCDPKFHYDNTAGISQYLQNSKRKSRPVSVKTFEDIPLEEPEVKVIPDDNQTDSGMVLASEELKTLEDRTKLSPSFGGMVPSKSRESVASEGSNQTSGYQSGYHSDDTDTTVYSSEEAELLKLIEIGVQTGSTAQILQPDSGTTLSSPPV

Compound	IC50 [1] [nM]	IC50 [2] [nM]	IC50 [3] [nM]	IC50 ([4]; Homo sapiens, A2780, 72 h) [µM]	IC50 ([5]; Homo sapiens, U-251, 72 h) [µM]	IC50 ([6]; Homo sapiens, A-375, 72 h) [µM]	IC50 ([7]; Homo sapiens, A 172, 72 h) [µM]	IC50 ([4]; 72 h) [µM]	IC50 ([5]; 72 h) [µM]	IC50 ([6]; 72 h) [µM]	IC50 ([7]; 72 h) [µM]
c1ccc(-c2cnc(Nc3cccc(CC4CC5CCC(C4)N5)n3)s2)cc1 (stereo not drawn) [Example 022, [6-(8-Aza-bicy-clo[3.2.1]oct-3-ylmethyl)-pyridin-2-yl]-(5-phenyl-thiazol-2-yl)-amine]	> 10	> 100	> 10	≤ 1	> 1	≤ 1	> 1	–	–	–	–
CC(=O)N1CCCC(Cc2cccc(Nc3ncc(-c4ccc(F)cc4)s3)n2)CC1 (stereo not drawn) [Example 007, 1-(4-{6-[5-(4-Fluoro-phenyl)-thiazol-2-ylamino]-pyridin-2-ylmethyl}-azepan-1-yl)-ethanone]	> 10	> 100	> 10	> 1	> 1	> 1	> 1	–	–	–	–
CC(=O)N1CCC(Cc2ccnc(Nc3ncc(-c4ccc(F)cc4)s3)c2)CC1 [Example 002, 1-(4-{2-[5-(4-Fluoro-phenyl)-thiazol-2-ylamino]-pyridin-4-ylmethyl}-piperidin-1-yl)-ethanone]	< 10	> 10	< 10	> 1	> 10	> 1	> 1	–	–	–	–
c1ccc(-c2cnc(Nc3cc(C4CCCNC4)ccn3)s2)cc1 (stereo not drawn) [Example 028, (1,2,3,4,5,6-Hexahydro-[3,4']bipyridinyl-2'-yl)-(5-phenyl-thiazol-2-yl)-amine]	< 10	32	> 100	> 1	> 10	> 10	> 1	–	–	–	–
OCCN1CCC(c2ccnc(Nc3ncc(-c4cc(F)cc(F)c4)s3)c2)CC1 [Example 039, 2-{2'-[5-(3,5-Difluoro-phenyl)-thiazol-2-ylamino]-3,4,5,6-tetrahydro-2H-[4,4']bipyridinyl-1-yl}-ethanol]	< 10	> 10	> 10	> 10	> 10	> 1	> 1	–	–	–	–
CC(=O)N1CCOCC(Cc2ccnc(Nc3ncc(-c4ccc(F)cc4)s3)c2)C1 (stereo not drawn) [Example 012, 1-(6-{2-[5-(4-Fluoro-phenyl)-thiazol-2-ylamino]-pyridin-4-ylmethyl}-[1,4]oxazepan-4-yl)-ethanone]	< 10	> 10	> 10	> 1	> 10	> 1	> 1	–	–	–	–
CN1CCCC(Cc2cccc(Nc3ncc(-c4ccc(F)cc4)s3)n2)CC1 (stereo not drawn) [Example 008, [5-(4-Fluoro-phenyl)-thiazol-2-yl]-[6-(1-methyl-azepan-4-ylmethyl)-pyridin-2-yl]-amine]	> 10	> 1000	> 10	> 1	> 1	> 1	> 10	–	–	–	–
[5-(4-Fluoro-phenyl)-thiazol-2-yl]-[6-(octahydro-isoindol-4-ylmethyl)-pyridin-2-yl]-amine [Example 021]	> 10	> 100	> 10	–	–	–	–	> 1	> 1	> 1	> 1
CS(=O)(=O)N1CCC(Cc2ccnc(Nc3ncc(-c4ccc(F)cc4)s3)c2)CC1 [Example 005, [5-(4-Fluoro-phenyl)-thiazol-2-yl]-[4-(1-methanesulfonyl-piperidin-4-ylmethyl)-pyridin-2-yl]-amine]	< 10	> 10	> 10	> 1	> 10	> 1	> 1	–	–	–	–
Fc1ccc(-c2cnc(Nc3cccc(CC4CCCNCC4)n3)s2)cc1 (stereo not drawn) [Example 006, (6-Azepan-4-ylmethyl-pyridin-2-yl)-[5-(4-fluoro-phenyl)-thiazol-2-yl]-amine]	> 10	> 100	> 10	≤ 1	> 1	≤ 1	> 1	–	–	–	–
Fc1ccc(-c2cnc(Nc3cc(CC4CCNCC4)ccn3)s2)cc1 [Example 001, [5-(4-Fluoro-phenyl)-thiazol-2-yl]-(4-piperidin-4-ylmethyl-pyridin-2-yl)-amine]	< 10	> 10	< 10	> 1	> 1	> 1	> 10	–	–	–	–
OCCN1CCC(c2ccnc(Nc3ncc(-c4ccccc4F)s3)c2)CC1 [Example 036, 2-{2'-[5-(2-Fluoro-phenyl)-thiazol-2-ylamino]-3,4,5,6-tetrahydro-2H-[4,4']bipyridinyl-1-yl}-ethanol]	< 10	> 10	< 10	> 1	> 1	> 1	> 10	–	–	–	–
c1ccc(-c2cnc(Nc3cc(CCC4CCCN4)ccn3)s2)cc1 (stereo not drawn) [Example 015, (5-Phenyl-thiazol-2-yl)-[4-(2-pyrrolidin-2-yl-ethyl)-pyridin-2-yl]-amine]	< 10	> 10	> 100	> 1	> 10	> 1	> 1	–	–	–	–
OCCN1CCC(c2ccnc(Nc3ncc(-c4cccc(F)c4)s3)c2)CC1 [Example 037, 2-{2'-[5-(3-Fluoro-phenyl)-thiazol-2-ylamino]-3,4,5,6-tetrahydro-2H-[4,4']bipyridinyl-1-yl}-ethanol]	< 10	> 10	< 10	> 1	> 1	> 10	> 10	–	–	–	–
OCCN1CCC(c2ccnc(Nc3ncc(-c4ccc(F)c(F)c4)s3)c2)CC1 [Example 038, 2-{2'-[5-(3,4-Difluoro-phenyl)-thiazol-2-ylamino]-3,4,5,6-tetrahydro-2H-[4,4']bipyridinyl-1-yl}-ethanol]	< 10	> 10	> 10	> 10	> 1	> 1	≤ 1	–	–	–	–
